Results from patent US8772283B2, “Imidazo-oxazine compound or salt thereof” (Taiho Pharmaceutical Co., Ltd., priority 2011, dated 2014).

Columns and labels:
human AKT1 = human AKT1 (Homo sapiens (Human), UniProt P31749); experiment: AKT1 kinase activity inhibition (TR-FRET, biotinylated Crosstide substrate); type: biochemical; settings: preincubation 120 min at 25° C.; ATP 150 μM; Crosstide 500 nM
Protocol: (§1) Preparation of AKT1 and AKT2 and measurement of in vitro inhibitory activity of the above-mentioned compounds against AKT1 and AKT2 kinase activity were carried out with reference to the method disclosed in Biochem. J. Vol. 385, pp 399-408 (2005). In the preparation of AKT1 and AKT2, human AKT1 and AKT2 to which a middle T antigen tag was added were expressed in Sf 9 insect cells, and then AKT1 and AKT2 were prepared following affinity purification and activation by PDK1. The prepared AKT1 and AKT2 were stored at −80° C. until the time of measurement of inhibitory activity of the compounds. In the measurement of inhibitory activity of the compounds, AKT1 or AKT2 and each compound of the present invention were preincubated at 25° C. for 120 minutes in a buffer solution for reaction (15 mM Tris-HCl pH 7.5, 0.01% Tween-20, 2 mM DTT). As a substrate, biotinylated Crosstide (bioton-KGSGSGRPRTSSFAEG), MgCl2, and ATP were added to final concentrations of 500 nM, 10 mM, and 150 μM, respectively, and reactions were carried out at 25° C. for 60 minutes. The reactions were stopped by adding EDTA to a final concentration of 80 mM. Then, a detection liquid in which an Eu-labeled anti-phosphorylation Crosstide antibody (PerkinElmer) and SureLight APC-SA (PerkinElmer) were contained at a final concentration of 0.5 nM and […], respectively, was added, and reactions were carried out at room temperature for 2 hours. Finally, the amount of fluorescence at the time of irradiation of excitation light having a wavelength of 337 nm was measured at dual wavelengths of 620 nm and 665 nm by PHERAstar FS (BMG LABTECH). The amount of phosphorylation was determined from the ratio of the fluorescence amounts at the dual wavelengths. The compound concentration at which phosphorylation can be inhibited by 50% was defined as […] (nM), and the results are shown in Table 4 below.

[1] = tested on: S6 ribosomal protein (S6RP) Ser240/Ser244 phosphorylation; experiment: Phosphorylated S6RP (Ser240/Ser244) inhibitory activity in cultured cell A2780 (Meso Scale Discovery assay); type: cell-based; settings: A2780 cells, 3 hours treatment; average±standard deviation of three independent runs
Protocol: (§2) To evaluate the inhibitory activity of the above compounds against AKT activity, AKT Ser 473 phosphorylation and phosphorylation of S6 ribosomal protein (S6RP) (a downstream factor of Akt signal) at Ser240/Ser244, which serve as indices for the activation status of AKT, were measured in extracts of cultured cells which had been treated with the above compounds. For the measurement, assays (manufactured by Meso Scale Discovery) utilizing electrochemiluminescence based on the ELISA principle were used for both AKT Ser473 and S6RP Ser240/Ser244.
(§3) In 10% FBS-containing RPMI1640 medium (Invitrogen), ovarian cancer-derived A2780 cells in the logarithmic growth phase were seeded at 4.5×10^4 cells/150 μL/well into polylysine coated 96-well flat-bottom plates, and cultured for one day in an incubator at 5% CO2, 37° C., and 100% humidity.
(§4) Each compound of the present invention was supplied as a stock solution prepared at a concentration of 10 mM in DMSO. Using this solution, a dilution series was prepared in DMSO solvent at 200-fold of the final concentrations (10, 3, 1, 0.3, 0.1, 0.03, 0.01, 0.003 μM). The day after the cells were seeded, the compound dilution series at a 200-fold concentration was diluted 50-fold in medium for cell culture. To each well of the aforementioned A2780 cell culture plates, 50 μL of the diluted compound dilution series was added. The plates were then placed back in the incubator, and the culture was continued for 3 hours at 5% CO2, 37° C., and 100% humidity.
(§5) Meso Scale Discovery's 96-Well Multi-Spot Phospho-AKT (Ser473) Assay (K151CAA-3) and Phospho (Ser240/244)/Total S6RP Assay (K11139D-2) were used. In advance, a necessary amount of the supplied cell extract buffer was dispensed, and protease inhibitor cocktail and protein phosphatase inhibitor cocktail were added thereto, and kept cold on ice. The culture plates of the cells cultured with the compounds for 3 hours were taken out and the medium was removed. 100 μL of the cell extract buffer kept cold was added per well, followed by extraction by shaking at 300 r.p.m. for 1 hour using a plate shaker while maintaining a temperature of 4° C. Using the obtained extracts at 40 μL/well for the Phospho-AKT (Ser473) Assay and at 15 μL/well for the Phospho(Ser240/244)/Total S6RP Assay, reactions were conducted at 4° C. overnight with shaking at 300 r.p.m. according to the document attached to the kits. The next day, after the wells were washed three times with the supplied wash buffer, 50 μL/well of SULFO-TAG™ sandwich antibody solution was added, and reactions were carried out at room temperature for 1 hour. The wells were washed with the wash buffer three times, and 150 μL of the supplied Read Buffer T was added to each well. The amounts of phosphorylation of AKT and S6RP were measured by a SECTOR Imager 6000 plate reader (manufactured by Meso Scale Discovery) within 30 minutes of the Read Buffer T addition.
(§6) The extraction buffer-only background was subtracted from all of the measurement values, and AKT and S6RP phosphorylation signals in the control cell extract treated with only DMSO were defined as 100%. The compound concentrations and the levels of phosphorylated AKT and S6PR (expressed as a percentage relative to the control) in each concentration were plotted, and IC50 concentration (nM) that achieves 50% inhibition of the control was determined.

human AKT2 = human AKT2 (Homo sapiens (Human), UniProt P31751); experiment: AKT2 kinase activity inhibition (TR-FRET, biotinylated Crosstide substrate); type: biochemical; settings: preincubation 120 min at 25° C.; ATP 150 μM; Crosstide 500 nM
human AKT2, sequence (P31751 whole entry): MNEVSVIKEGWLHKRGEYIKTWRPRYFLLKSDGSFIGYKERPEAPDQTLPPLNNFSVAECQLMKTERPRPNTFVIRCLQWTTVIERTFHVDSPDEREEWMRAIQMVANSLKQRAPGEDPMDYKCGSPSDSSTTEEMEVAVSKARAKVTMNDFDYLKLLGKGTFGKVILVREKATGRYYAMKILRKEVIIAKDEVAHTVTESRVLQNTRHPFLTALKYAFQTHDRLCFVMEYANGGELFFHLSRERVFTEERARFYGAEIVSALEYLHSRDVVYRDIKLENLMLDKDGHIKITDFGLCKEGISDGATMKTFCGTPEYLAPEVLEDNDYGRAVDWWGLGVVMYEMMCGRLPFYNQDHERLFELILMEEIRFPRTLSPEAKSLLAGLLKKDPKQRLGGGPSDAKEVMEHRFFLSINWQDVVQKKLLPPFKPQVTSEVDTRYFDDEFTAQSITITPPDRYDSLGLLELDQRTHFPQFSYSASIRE
Protocol: as §1

[2] = tested on: AKT Ser473 phosphorylation; experiment: Phosphorylated AKT (Ser473) inhibitory activity in cultured cell A2780 (Meso Scale Discovery assay); type: cell-based; settings: A2780 cells, 3 hours treatment; average±standard deviation of three independent runs
Protocol: as §2, §3, §4, §5, §6

human AKT1, sequence (P31749 whole entry): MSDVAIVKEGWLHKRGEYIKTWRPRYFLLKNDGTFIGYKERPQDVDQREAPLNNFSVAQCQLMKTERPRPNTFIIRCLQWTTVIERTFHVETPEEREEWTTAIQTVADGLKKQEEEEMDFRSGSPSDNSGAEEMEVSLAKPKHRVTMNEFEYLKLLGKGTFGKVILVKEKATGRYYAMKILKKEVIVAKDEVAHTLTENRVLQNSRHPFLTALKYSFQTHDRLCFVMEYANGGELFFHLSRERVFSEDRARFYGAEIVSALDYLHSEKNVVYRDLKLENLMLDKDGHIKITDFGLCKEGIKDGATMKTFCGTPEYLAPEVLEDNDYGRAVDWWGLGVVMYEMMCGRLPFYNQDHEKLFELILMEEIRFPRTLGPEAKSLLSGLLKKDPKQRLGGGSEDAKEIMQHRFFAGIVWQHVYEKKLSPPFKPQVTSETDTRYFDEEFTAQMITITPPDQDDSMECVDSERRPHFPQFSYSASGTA

| Structure (SMILES) | IC50 (human AKT1) | IC50 [1] | IC50 (human AKT2) | IC50 [2] |
| --- | --- | --- | --- | --- |
| NC1(c2ccc(-c3nc4n(c3-c3ccccc3)COc3nccnc3-4)cc2)CC(O)(C2CC2)C1 (stereo not drawn) [Example 41, trans-3-amino-1-cyclopropyl-3-(4-(3-phenyl-5H-imidazo[1,2-c]pyrazino[2,3-e][1,3]oxazin-2-yl)phenyl)cyclobutanol] | 0.0054 µM | 0.1 ± 0.034 µM | 0.0033 µM | 0.07 ± 0.016 µM |
| N[C@]1(c2ccc(-c3nc4n(c3-c3ccccc3)COc3ccccc3-4)cc2)C[C@](O)(C2CC2)C1 [Example 11, trans-3-amino-1-cyclopropyl-3-(4-(3-phenyl-5H-benzo[e]imidazo[1,2-c][1,3]oxazin-2-yl)phenyl)cyclobutanol] | 0.0039 µM | 0.083 ± 0.027 µM | 0.001 µM | 0.063 ± 0.015 µM |
| N[C@]1(c2ccc(-c3nc4n(c3-c3ccccc3)COc3cccnc3-4)cc2)C[C@](O)(C2CC2)C1 [Example 27, trans-3-amino-1-cyclopropyl-3-(4-(3-phenyl-5H-imidazo[1,2-c]pyrido[2,3-e][1,3]oxazin-2-yl)phenyl)cyclobutanol] | 0.011 µM | 0.1 ± 0.017 µM | 0.0016 µM | 0.066 ± 0.01 µM |
| N[C@]1(c2ccc(-c3nc4n(c3-c3ccccc3)COc3cccc(F)c3-4)cc2)C[C@](O)(C2CC2)C1 [Example 1, trans-3-amino-1-cyclopropyl-3-(4-(10-fluoro-3-phenyl-5H-benzo[e]imidazo[1,2-c][1,3]oxazin-2-yl)phenyl)cyclobutanol] | 0.0037 µM | 0.04 ± 0.013 µM | 0.00029 µM | 0.024 ± 0.001 µM |
| C[C@]1(O)C[C@@](N)(c2ccc(-c3nc4n(c3-c3ccccc3)COc3cnccc3-4)cc2)C1 [Example 36, trans-3-amino-1-methyl-3-(4-(3-phenyl-5H-imidazo[1,2-c]pyrido[4,3-e][1,3]oxazin-2-yl)phenyl)cyclobutanol] | 0.002 µM | 0.036 ± 0.003 µM | 0.00074 µM | 0.032 ± 0.006 µM |
| COc1ccc2c(c1)-c1nc(-c3ccc([C@]4(N)C[C@@](O)(C5CC5)C4)cc3)c(-c3ccccc3)n1CO2 [Example 17, trans-3-amino-1-cyclopropyl-3-(4-(9-methoxy-3-phenyl-5H-benzo[e]imidazo[1,2-c][1,3]oxazin-2-yl)phenyl)cyclobutanol] | 0.0018 µM | 0.037 ± 0.007 µM | 0.0051 µM | 0.033 ± 0.006 µM |
| CNC(=O)c1ccc2c(c1)OCn1c-2nc(-c2ccc([C@]3(N)C[C@](C)(O)C3)cc2)c1-c1ccccc1 [Example 56, 2-(4-(trans-1-amino-3-hydroxy-3-methylcyclobutyl)phenyl)-N-methyl-3-phenyl-5H-benzo[e]imidazo[1,2-c][1,3]oxazine-8-carboxamide] | 0.0018 µM | 0.038 ± 0.012 µM | 0.00049 µM | 0.025 ± 0.003 µM |
| N[C@]1(c2ccc(-c3nc4n(c3-c3ccccc3)COc3cnccc3-4)cc2)C[C@](O)(C2CC2)C1 [Example 35, trans-3-amino-1-cyclopropyl-3-(4-(3-phenyl-5H-imidazo[1,2-c]pyrido[4,3-e][1,3]oxazin-2-yl)phenyl)cyclobutanol] | 0.0016 µM | 0.033 ± 0.008 µM | 0.00048 µM | 0.024 ± 0.003 µM |
| N[C@]1(c2ccc(-c3nc4n(c3-c3ccccc3)COc3ccncc3-4)cc2)C[C@](O)(C2CC2)C1 [Example 31, trans-3-amino-1-cyclopropyl-3-(4-(3-phenyl-5H-imidazo[1,2-c]pyrido[3,4-e][1,3]oxazin-2-yl)phenyl)cyclobutanol] | 0.0042 µM | 0.051 ± 0.007 µM | 0.00078 µM | 0.03 ± 0.005 µM |
| CCONC(=O)c1ccc2c(c1)OCn1c-2nc(-c2ccc([C@]3(N)C[C@](C)(O)C3)cc2)c1-c1ccccc1 [Example 59, 2-(4-(trans-1-amino-3-hydroxy-3-methylcyclobutyl)phenyl)-N-ethoxy-3-phenyl-5H-benzo[e]imidazo[1,2-c][1,3]oxazine-8-carboxamide] | 0.0021 µM | 0.042 ± 0.014 µM | 0.00053 µM | 0.026 ± 0.003 µM |
| N[C@]1(c2ccc(-c3nc4n(c3-c3ccncc3)COc3cccc(F)c3-4)cc2)C[C@](O)(C2CC2)C1 [Example 5, trans-3-amino-1-cyclopropyl-3-(4-(10-fluoro-3-(pyridin-4-yl)-5H-benzo[e]imidazo[1,2-c][1,3]oxazin-2-yl)phenyl)cyclobutanol] | 0.022 µM | 0.232 ± 0.053 µM | 0.00091 µM | 0.085 ± 0.024 µM |
| N[C@]1(c2ccc(-c3nc4n(c3-c3ccccc3)COc3ncccc3-4)cc2)C[C@](O)(C2CC2)C1 [Example 38, trans-3-amino-1-cyclopropyl-3-(4-(3-phenyl-5H-imidazo[1,2-c]pyrido[3,2-e][1,3]oxazin-2-yl)phenyl)cyclobutanol] | 0.0014 µM | 0.034 ± 0.006 µM | 0.00091 µM | 0.023 ± 0.004 µM |
| C[C@]1(O)C[C@@](N)(c2ccc(-c3nc4n(c3-c3ccccc3)COc3ccc(-c5ccn[nH]5)cc3-4)cc2)C1 [Example 48, trans-3-amino-1-methyl-3-(4-(3-phenyl-9-(1H-pyrazol-5-yl)-5H-benzo[e]imidazo[1,2-c][1,3]oxazin-2-yl)phenyl)cyclobutanol] | 0.0008 µM | 0.086 ± 0.027 µM | 0.00032 µM | 0.048 ± 0.005 µM |
| COc1ccc2c(c1)OCn1c-2nc(-c2ccc([C@]3(N)C[C@@](O)(C4CC4)C3)cc2)c1-c1ccccc1 [Example 18, trans-3-amino-1-cyclopropyl-3-(4-(8-methoxy-3-phenyl-5H-benzo[e]imidazo[1,2-c][1,3]oxazin-2-yl)phenyl)cyclobutanol] | 0.0037 µM | 0.058 ± 0.01 µM | 0.0006 µM | 0.052 ± 0.006 µM |
| C[C@]1(O)C[C@@](N)(c2ccc(-c3nc4n(c3-c3ccccc3)COc3cccnc3-4)cc2)C1 [Example 28, trans-3-amino-1-methyl-3-(4-(3-phenyl-5H-imidazo[1,2-c]pyrido[2,3-e][1,3]oxazin-2-yl)phenyl)cyclobutanol] | 0.011 µM | 0.131 ± 0.028 µM | 0.002 µM | 0.081 ± 0.009 µM |
| COc1cccc2c1-c1nc(-c3ccc([C@]4(N)C[C@@](O)(C5CC5)C4)cc3)c(-c3ccccc3)n1CO2 [Example 16, trans-3-amino-1-cyclopropyl-3-(4-(10-methoxy-3-phenyl-5H-benzo[e]imidazo[1,2-c][1,3]oxazin-2-yl)phenyl)cyclobutanol] | 0.0048 µM | 0.038 ± 0.007 µM | 0.00035 µM | 0.031 ± 0.005 µM |
